Laboratory results published in US12358859B2, “Series of compounds for treatment of skin diseases and other conditions” (Unigen, Inc., priority 2018, dated 2025).
Where two headings read alike, the source gives them in different places.

Tests used:
Type in all cases: cell-based
[1] = test system: murine melanoma cells B16-F1; test: Cell viability, tetrazolium reduction assay
Protocol: (§1) All test compounds were initially dissolved in 100% DMSO at a concentration of 400 mM. Then, 6 μL of 400 mM test compounds were added to 1.2 mL of the cell growth media giving a final concentration of 2 mM for the test compound and concentration of 0.5% for DMSO. The compounds were centrifuged for 1 h at 20,000×g. Supernatants (1 mL) were collected and filtered through sterile 0.2 μm filters. The compounds were serially diluted in two-fold increments in the sterile cell growth media supplemented with 0.5% DMSO, thus keeping the concentration of DMSO constant for all samples. These serially diluted compounds were subsequently used as two-fold concentrated stock solutions in the melanin production and cell viability assays. Equal volumes of 2× compounds were mixed with media containing 2 nM α-MSH to give a final concentration of 1 nM α-MSH, 0.5% DMSO, and 1× concentration of test compounds.
Viability of cells was measured using standard tetrazolium reduction assay based on redox potential of live cells. Cells were seeded in a clear-bottom 96-well plate in RPMI 1640 media with Glutamax (Fisher Scientific, cat #61870036) at a density of 5,000 cells/well. Cells were treated with test compounds dissolved in 100 μL RPMI 1640 media and incubated for 48 hours at 37° C. in a humidified atmosphere of 95% air and 5% CO2.
After incubation, 20 μL of Aqueous One Solution were added to each well and the plate was returned to the incubator for 30 minutes. Conversion of tetrazolium was monitored by measuring absorbance of cell wells at 492 nm using a TECAN Genios plate reader.
(§2) More than 90% percent of the melanin produced by cultured melanoma cells is found in extra-cellular media. Therefore, at the end of the experiment melanin-containing media was collected and relative amounts of melanin were determined by absorption at 492 nm. Viability of cells was determined by a commonly used colorimetric procedure that is based on conversion of the tetrazolium compounds to colored formazan products (using Promega's CellTiter96 AqueousOne assay). Dehydrogenase enzymes in metabolically active cells accomplish this conversion, and the amount of formazan product is directly proportional to the number of living cells in culture. Mean (n=2) absorption of wells containing no cells was subtracted as blanks. The results were computed as percent of wells that contained the cells but no test compounds.

[2] = test system: murine melanoma cells B16-F1; test: Melanin production by murine melanoma cells B16-F1; settings: Mus musculus, B16-F1, 1 nM α-MSH, 48 hours
Protocol: Selected compounds were then tested for the ability to suppress melanin production by the murine melanoma cells B16-F1 as detailed below.
Murine melanoma cells B16-F1 were purchased from the ATCC (Cat #CRL-6323). Cell Titer96 AqueousOne Solution was purchased from Promega (Cat #G3582). 0.2 μm pore size, low protein binding filters were purchased from PALL Life Sciences. (Cat #PN4454).
Alpha-MSH was purchased from the Sigma Aldrich (Cat #M4135-1MG). All tissue culture reagents were purchased from VWR (phenol-red-free DMEM, cat #12001-630, L-glutamine, cat #12001-698) and Fisher Scientific (Trypsin-EDTA, cat #25-200-056).
The B16-F1 cells were maintained in cell growth media (DMEM/High Glucose supplemented with glutamine, 10% fetal bovine serum, 50 units/ml penicillin, and 50 units/mL of streptomycin) at 37° C. in a humidified atmosphere of 95% air and 5% CO2.
as §1
B16-F1 cells were seeded into the wells of clear-bottom 24-well plates at 50,000 cells per well, in 0.5 mL of cell growth media. On the following day, 0.5 mL of freshly prepared test compounds containing α-MSH were added to the wells. The cells were maintained at 37° C. in a humidified atmosphere of 95% air and 5% CO2 for 48 hours. At the end of the incubation period, melanin-containing conditioned media was removed from the cells and transferred to another plate. To measure melanin content the light absorbance of conditioned media was taken at 492 nm using a TECAN Genios plate reader.
as §2

[3] = test system: Propionibacterium acnes (ATCC11827); test: P-acne MIC/MBC test; settings: Cutibacterium acnes; for MIC: ATCC11827, 24 h, lowest level that inhibits growth, turbidity, 1 day, read-out: MIC; for MBC: ATCC11827, lowest concentration required to kill the bacterium, read-out: MBC
Protocol: The anti-microbial activity of the tested compounds were evaluated using published methods (Modugno e. al. (1994) Antimicrobial agents and Chemotherapy 38: 2362-2368; […] et. al. (1973) Antimicrobial agents and Chemotherapy 3: 40-48. Propionibacterium acnes (ATCC11827) was cultured for 20 hours at 37° C. in Reinforced Clostridal medium. The test article and positive control were dissolved in 1% DMSO with an incubation volume of 1 mL. The time of assessment was 1 day. Measurement of turbidity was used as the method of quantification. The compounds were tested in duplicate at concentrations of 250 ug/mL, 125 ug/mL, 62 ug/mL, 31 ug/mL, 16 ug/mL, 8 ug/mL, 4 ug/mL, 2 ug/mL relative to positive control ampicillin at 0.1 ug/mL.

[4] = test system: reconstructed skin (keratinocytes and melanocytes); test: Reconstructed human skin model (Melanoderm); settings: for toxicity on reconstructed skin: at 0.05%
Protocol: The skin whitening effects of test compounds were studied using a reconstructed skin model, Melanoderm™ provided by MatTek Corp. (Ashland, Mass.) according to the manufacturer's specifications. Briefly, normal human epidermal keratinocytes and normal human melanocytes derived from dark skin donors were co-cultured on a surface of collagen-coated membrane to form multi-layered, highly differentiated skin tissue (MEL-300-B). The tissues were maintained in the CO2, incubator at 37° C. The apical surfaces of the reconstructed skin (9 mm in diameter) were exposed to air whereas the bottom surfaces remained in contact with 5 mL of maintenance medium, containing skin differentiating factors (EPI-100-NNM-113). Test compounds were formulated in 80% propylene glycol as follows: 10 mg of each test compound was dissolved in DMSO and diluted with 80% propylene glycol (1,2-propanediol, Sigma-Aldrich) to stock concentrations. The compounds were then sterilized by passing through 0.2 um filter and diluted in sterile water/propylene glycol to final test concentrations in 0.5% DMSO, 80% propylene glycol. In addition, the following controls were used: 80% propylene glycol with 0.5% DMSO, and 1% kojic acid in 80% propylene glycol.
‘Test compounds were applied to the apical surface of the tissues as follows: 25 μl of each test compound, 25 μl of 80% propylene glycol (vehicle control), and 25 μl of 1% kojic acid (positive control). The samples were reapplied every other day for 14 days. All the samples were tested in duplicate. At the end of the experiment microscopic images were taken.
The potential skin-whitening properties of test compounds were explored in a reconstructed skin model. The model consists of normal, human-derived epidermal keratinocytes and melanocytes, which have been co-cultured to form a multilayered, highly differentiated human epidermis. In this study the melanocytes were obtained from a highly pigmented donor.
Different concentrations of test compounds, 80% propylene glycol (the vehicle control), or 1% kojic acid (positive control) were repeatedly applied topically on the surface of the reconstructed skin for 15 days. […] Photographs of skin specimen taken after 15 days of the experiment show significant dose-dependent whitening effects on melanocytes, which appear on photographs as dark dendritic cells.

[5] = Tables 1-3, read-out: MELANIN PRODUCTION
[6] = FIGS. 2-8, read-out: IC50, inhibition in the production of melanin

Row | IC50 [2, 5] | MIC [3] | Structure (SMILES) | CELL VIABILITY ([1]; mouse, 48 h) | MBC [3] | LD50, cell viability ([1]; mouse, 48 h) | toxicity on reconstructed skin [4] | IC50 [2, 6] | CELL VIABILITY ([1]; 48 hours, Tables 1-3) | whitening effects on melanocytes ([4]; topical, photographs after 14 days)
1 | 82 µM | – | CC(C)=CCCC(C)=Cc1cccc(O)c1 (mixture of isomers) [Compound 2, (E/Z)-3-(2,6-dimethylhepta-1,5-dienyl)phenol] | 66 µM | – | – | – | – | – | –
2 | 164 µM | < 3.9 µg/mL | CC(C)=CCC/C(C)=C/c1ccc(O)cc1O [Compound 3, (E/Z)-4-(2,6-dimethylhepta-1,5-dienyl)benzene-1,3-diol] | 172 µM | < 3.9 µg/mL | – | – | – | – | –
3 | 149 µM | – | CC(C)=CCCC(C)/C=C/c1ccccn1 (stereo not drawn) [Compound 13, (E)-2-(3,7-dimethylocta-1,6-dienyl) pyridine] | 650 µM | – | – | – | – | – | –
4 | 147 µM | – | COc1ccc(/C=C/C(C)CCC=C(C)C)cn1 (stereo not drawn) [Compound 14, (E)-5-(3,7-dimethylocta-1,6-dienyl)-2-methoxypyridine] | 369 µM | – | – | – | – | – | –
5 | 164 µM | < 3.9 µg/mL | CC(C)=CCCC(C)C/C=C/c1cc(O)cc(O)c1 (stereo not drawn) [Compound 16, (E)-5-(4,8-dimethylnona-1,7-dienyl) benzene-1,3-diol] | 172 µM | < 3.9 µg/mL | – | – | – | – | –
6 | 72 µM | < 3.9 µg/mL | CC(C)=CCCC(C)C/C=C/c1cc(OCC(=O)O)cc(OCC(=O)O)c1 (stereo not drawn) [Compound 17, (E)-2,2′-(5-(4,8-dimethylnona-1,7-dienyl)-1,3-phenylene)bis(oxy)diacetic acid] | 127 µM | < 3.9 µg/mL | – | – | – | – | –

Row | Structure (SMILES) | IC50 [2, 5] | MIC [3] | CELL VIABILITY ([1]; mouse, 48 h) | MBC [3] | LD50, cell viability ([1]; mouse, 48 h) | toxicity on reconstructed skin [4] | IC50 [2, 6] | CELL VIABILITY ([1]; 48 hours, Tables 1-3) | whitening effects on melanocytes ([4]; topical, photographs after 14 days)
7 | CC(C)=CCCC(C)/C=C/c1ccc2cc(O)ccc2c1 (stereo not drawn) [Compound 8, (E)-6-(3,7-Dimethylocta-1,6-dienyl) naphthalene-2-ol] | 22 µM | < 3.9 µg/mL | 68 µM | < 3.9 µg/mL | 68 µM | some toxicity | 22 µM | – | –
8 | CC(C)=CCCC(C)/C=C/c1cccnc1 (stereo not drawn) [Compound 12, (E)-3-(3,7-dimethylocta-1,6-dienyl) pyridine] | 74 µM | < 3.9 µg/mL | – | < 3.9 µg/mL | 385 µM | some toxicity | 74 µM | 385 µM | significant whitening effects
